The record followed here is PubChem BioAssay (NCI).

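Test compounds were applied to cells in 96-well plates for 48 hours at 5 doses. TGI denotes the concentration required for complete inhibition of growth.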

Some test systems named below: LOX IMVI melanoma; HCC-2998 colon; NCI-H522 lung; NCI-H23 lung; A549 NSCLC; RPMI-8226 leukemia; SK-MEL-28 melanoma; U251 CNS; HT29 colon; HCT-15 colon; IGROV1 ovarian; CAKI-1 renal; UACC-257 melanoma; CCRF-CEM leukemia; SF-539 CNS; OVCAR-5 ovarian; NCI-H226 lung; SNB-19 CNS; MALME-3M melanoma; UO-31 renal.
Common to all, as to test: NCI anticancer screen, dose series, 48 h

Turning to `CCN1c2ccccc2NC(=S)c2c1n[nH]c2-c1ccccc1`, the TGI is greater than 100 µM with LOX IMVI melanoma; 19.3 µM in the assay on HCC-2998 colon; 52.8 µM in the assay with NCI-H522 lung; greater than 100 µM with NCI-H23 lung; 84.5 µM in the assay on A549 NSCLC; 43.9 µM in the assay on RPMI-8226 leukemia. Further, the TGI in the assay on SK-MEL-28 melanoma was greater than 100 µM; with U251 CNS it was 50.1 µM; in the assay on HT29 colon, greater than 100 µM; in the assay with HCT-15 colon, 87.9 µM; in the assay with IGROV1 ovarian, greater than 100 µM; with CAKI-1 renal it was greater than 100 µM. Besides, the TGI with UACC-257 melanoma is greater than 100 µM; with CCRF-CEM leukemia it was 49.4 µM; in the assay with SF-539 CNS it was greater than 100 µM; in the assay with OVCAR-5 ovarian, greater than 100 µM.
As for `CCCCCCSc1nc(N)nc2nc[nH]c12`, the TGI in the assay on LOX IMVI melanoma is greater than 100 µM; in the assay with NCI-H226 lung, greater than 85.4 µM; in the assay on HCC-2998 colon it was greater than 100 µM; with NCI-H522 lung, 40.9 µM; in the assay on SNB-19 CNS, greater than 100 µM; with NCI-H23 lung, greater than 100 µM. The TGI in the assay with A549 NSCLC, in the assay with RPMI-8226 leukemia, in the assay with SK-MEL-28 melanoma, in the assay with U251 CNS, with MALME-3M melanoma and with HT29 colon was greater than 100 µM each time. Also, the TGI was greater than 100 µM in the assay with HCT-15 colon; 68.6 µM with UO-31 renal; greater than 100 µM with IGROV1 ovarian; greater than 100 µM with UACC-257 melanoma; greater than 100 µM with CCRF-CEM leukemia; greater than 100 µM with SF-539 CNS. The TGI with OVCAR-5 ovarian was greater than 100 µM.
Take `C/C(=N\Nc1nc2cc(Cl)ccc2s1)c1ccccn1`: the TGI in the assay with LOX IMVI melanoma is 13.5 µM; in the assay on NCI-H226 lung, greater than 100 µM; in the assay on HCC-2998 colon, greater than 80.8 µM; in the assay on NCI-H522 lung, greater than 41.1 µM; in the assay with SNB-19 CNS, 15.6 µM; with NCI-H23 lung it was 25.9 µM. Further, the TGI in the assay on A549 NSCLC was greater than 43.7 µM; with RPMI-8226 leukemia, greater than 32.4 µM; in the assay with SK-MEL-28 melanoma, greater than 27.5 µM; with U251 CNS it was 6.57 µM; with MALME-3M melanoma it was greater than 25.6 µM; in the assay with HCT-15 colon, greater than 79.9 µM. Besides, the TGI is 14.8 µM in the assay with UO-31 renal; 46 µM with CAKI-1 renal; greater than 100 µM in the assay with UACC-257 melanoma; greater than 75.4 µM with CCRF-CEM leukemia; greater than 100 µM in the assay on SF-539 CNS; greater than 100 µM with OVCAR-5 ovarian.
For `COC1/C=C/C=C(/C)Cc2cc(O)c(Cl)c(c2)N(C)C(=O)CC(OC(=O)C(C)C)C2(C)OC2C(C)C2CC1(O)NC(=O)O2` (stereo not drawn), the TGI in the assay with LOX IMVI melanoma was greater than 100 µM; with NCI-H226 lung, greater than 100 µM; in the assay with NCI-H522 lung, less than 0.01 µM; in the assay on SNB-19 CNS, greater than 100 µM; in the assay with NCI-H23 lung, less than 0.01 µM; in the assay with A549 NSCLC, greater than 100 µM. Further, the TGI in the assay on RPMI-8226 leukemia is greater than 100 µM; in the assay on U251 CNS, greater than 43.9 µM; in the assay with MALME-3M melanoma it was greater than 100 µM; with HT29 colon, less than 0.01 µM; in the assay with UO-31 renal it was greater than 100 µM; in the assay on IGROV1 ovarian, greater than 100 µM. The TGI with CAKI-1 renal is greater than 100 µM; in the assay with UACC-257 melanoma, greater than 100 µM; in the assay with CCRF-CEM leukemia, greater than 100 µM; with OVCAR-5 ovarian, greater than 71.2 µM.
`CCOC(=O)c1nc2ccc(OC)cc2c2c1Cc1ccccc1-2`: the TGI in the assay on LOX IMVI melanoma, in the assay with NCI-H226 lung, with HCC-2998 colon, with NCI-H522 lung, in the assay on SNB-19 CNS and in the assay with NCI-H23 lung was greater than 100 µM throughout. In addition, the TGI in the assay on A549 NSCLC, in the assay with RPMI-8226 leukemia, with SK-MEL-28 melanoma, in the assay with U251 CNS, in the assay on MALME-3M melanoma and in the assay on HT29 colon was greater than 100 µM each time. Further, the TGI with HCT-15 colon, in the assay with UO-31 renal, in the assay on IGROV1 ovarian, in the assay on CAKI-1 renal, in the assay on UACC-257 melanoma and in the assay with SF-539 CNS was greater than 100 µM throughout. The TGI with OVCAR-5 ovarian was greater than 100 µM.
On to `CC(=O)C(=O)NC1/C=C(C)\C=C/C(O)C/C=C(C)\C=C/C(O)CC2OC(=O)C1(C)C(=O)C2C` (stereo not drawn), for which the TGI with LOX IMVI melanoma, in the assay with NCI-H226 lung, in the assay with HCC-2998 colon, in the assay with NCI-H522 lung, in the assay with SNB-19 CNS and in the assay on NCI-H23 lung was greater than 100 µM in each case. Besides, the TGI in the assay with A549 NSCLC was greater than 100 µM; with RPMI-8226 leukemia, 98.9 µM; in the assay on SK-MEL-28 melanoma, greater than 100 µM; with U251 CNS, greater than 100 µM; with MALME-3M melanoma, greater than 100 µM; in the assay on HT29 colon it was greater than 100 µM. For the same compound, the TGI in the assay on HCT-15 colon, with UO-31 renal, in the assay on IGROV1 ovarian, with CAKI-1 renal, with UACC-257 melanoma and in the assay on CCRF-CEM leukemia was greater than 100 µM in each case. Moreover, the TGI with SF-539 CNS and in the assay with OVCAR-5 ovarian was greater than 100 µM throughout.
Take `O=C1CC(/C=C/c2ccco2)=C(O)C1=O`: the TGI in the assay on LOX IMVI melanoma stood at 25.4 µM; in the assay with NCI-H226 lung, 69.1 µM; in the assay on HCC-2998 colon, 31.9 µM; in the assay with NCI-H522 lung it was 31.7 µM; with SNB-19 CNS it was 30.9 µM; with NCI-H23 lung, 27.2 µM. Besides, the TGI with A549 NSCLC stood at 62.8 µM; in the assay on RPMI-8226 leukemia, 40.2 µM; in the assay with SK-MEL-28 melanoma, 48.3 µM; with U251 CNS it was 28.6 µM; in the assay on MALME-3M melanoma, 23.9 µM; in the assay on HT29 colon it was 30.4 µM. The TGI with HCT-15 colon came to 31.9 µM; in the assay with UO-31 renal, 61.3 µM; in the assay on IGROV1 ovarian, 24.5 µM; in the assay with CAKI-1 renal, 34.6 µM; in the assay with UACC-257 melanoma, 33.2 µM; with CCRF-CEM leukemia, 8.68 µM. In addition, the TGI worked out at 31.1 µM with SF-539 CNS and 30.1 µM with OVCAR-5 ovarian.
